Each structure is given as a SMILES string.

The target in the assay is T1, recombinant human GR (Homo sapiens, UniProt P04150).
T1 construct: purchased Panvera/Invitrogen P2812 (kit P2893)
T1 sequence (P04150 1-777): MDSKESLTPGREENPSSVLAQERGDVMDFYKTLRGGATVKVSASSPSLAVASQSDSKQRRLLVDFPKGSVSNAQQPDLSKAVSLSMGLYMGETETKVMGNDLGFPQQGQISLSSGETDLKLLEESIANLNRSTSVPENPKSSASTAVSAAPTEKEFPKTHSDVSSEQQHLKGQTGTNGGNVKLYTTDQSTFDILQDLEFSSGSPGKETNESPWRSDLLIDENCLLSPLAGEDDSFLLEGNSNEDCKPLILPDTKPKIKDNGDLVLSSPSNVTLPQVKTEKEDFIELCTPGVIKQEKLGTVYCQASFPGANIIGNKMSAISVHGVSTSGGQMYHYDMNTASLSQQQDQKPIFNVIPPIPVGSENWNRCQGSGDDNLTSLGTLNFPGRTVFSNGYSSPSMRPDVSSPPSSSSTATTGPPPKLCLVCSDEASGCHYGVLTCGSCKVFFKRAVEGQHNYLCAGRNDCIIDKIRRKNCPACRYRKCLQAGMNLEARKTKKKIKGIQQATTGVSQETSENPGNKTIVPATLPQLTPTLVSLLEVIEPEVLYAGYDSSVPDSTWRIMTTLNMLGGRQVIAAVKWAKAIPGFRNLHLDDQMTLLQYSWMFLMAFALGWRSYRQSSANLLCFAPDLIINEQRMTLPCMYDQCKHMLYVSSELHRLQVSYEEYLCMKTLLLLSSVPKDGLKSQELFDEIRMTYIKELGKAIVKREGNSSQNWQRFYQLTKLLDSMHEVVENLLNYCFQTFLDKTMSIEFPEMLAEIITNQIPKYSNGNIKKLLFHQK
Kind of assay: Human Glucocorticoid Receptor (GR) Assay (fluorescence polarization competition, Panvera/Invitrogen kit). To be noted: GS Red Fluoromone tracer, 2 hours at room temperature, 100% control 10 μM Dexamethasone, read-out: Inhibition of GR binding, IC50. The method, then: Human Glucocorticoid Receptor (GR) Assay The assay is based on a commercial kit from Panvera/Invitrogen (Part number P2893). The assay technology is fluorescence polarization. The kit utilises recombinant human GR (Panvera, Part number P2812), a Fluoromone™ labelled tracer (GS Red, Panvera, Part number P2894) and a Stabilizing Peptide 10× (Panvera, Part number P2815). The GR and Stabilizing Peptide reagents are stored at −70° C. while the GS Red is stored at −20° C. Also included in the kit are 1M DTT (Panvera, Part number P2325, stored at −20° C.) and GR Screening buffer 10× (Panvera, Part number P2814, stored at −70° C. initially but once thawed stored at room temperature). Avoid repeated freeze/thaws for all reagents. The GR Screening buffer 10× comprises 100 mM potassium phosphate, 200 mM sodium molybdate, 1 mM EDTA and 20% DMSO. Test compounds (1 μL) and controls (1 μL) in 100% DMSO were added to black is polystyrene 384-well plates (Greiner low volume black flat-bottom, part number 784076). 0% control was 100% DMSO and 100% control was 10 μM Dexamethasone. Background solution (8 μL; assay buffer 10×, Stabilizing Peptide, DTT and ice cold MQ water) was added to the background wells. GS Red solution (7 μL; assay buffer 10×, Stabilizing Peptide, DTT, GS Red and ice cold water) was added to all wells except background wells. GR solution (7 μL; assay buffer 10×, Stabilizing Peptide, DTT, GR and ice cold water) was added to all wells. The plate was sealed and incubated in a dark at room temperature for 2 hours. The plate was read in an Analyst plate reader (LJL Biosystems/Molecular Devices Corporation) or other similar plate reader capable of recording fluorescence polarization (excitation wavelength 530 nm, emission wavelength 590 nm and a dichroic mirror at 561 nm).
(Polarisation of emitted light reports the rotation of a fluorescent probe.)
A word on the IC50: it is the concentration that gives 50% inhibition. As to `COCC(=O)O[C@]1(C(=O)SCC#N)CC[C@H]2[C@@H]3C[C@H](C)C4=Cc5c(cnn5-c5ccc(F)nc5)C[C@]4(C)[C@H]3[C@@H](O)C[C@@]21C` [Example 24, (1R,3aS,3bS,5S,10aR,10bS,11S,12aS)-1-{[(Cyanomethyl)sulfanyl]carbonyl}-7-(6-fluoropyridin-3-yl)-11-hydroxy-5,10a,12a-trimethyl-1,2,3,3a,3b,4,5,7,10,10a,10b,11,12,12a-tetradecahydrocyclopenta[5,6]naphtho[1,2-f]indazol-1-yl methoxyacetate], the half-maximal inhibitory concentration (IC50) is 1.1 nM. In the case of `C[C@H]1C[C@@H]2[C@H]([C@@H](O)C[C@@]3(C)[C@H]2CC[C@]3(OC(=O)C2CC2)C(=O)SCF)[C@@]2(C)Cc3cnn(-c4ccc(F)nc4)c3C=C12` [Example 25, (1R,3aS,3bS,5S,10aR,10bS,11S,12aS)-1-{[(Fluoromethyl)sulfanyl]carbonyl}-7-(6-fluoropyridin-3-yl)-11-hydroxy-5,10a,12a-trimethyl-1,2,3,3a,3b,4,5,7,10,10a,10b,11,12,12a-tetradecahydrocyclopenta[5,6]naphtho[1,2-f]indazol-1-yl cyclopropanecarboxylate], the IC50 was 1.2 nM. For `CCC(=O)O[C@]1(C(=O)SCC#N)[C@H](C)C[C@H]2[C@@H]3CCC4=Cc5c(cnn5-c5ccc(F)cc5)C[C@]4(C)[C@@]3(F)[C@@H](O)C[C@@]21C` [Example 26, (1R,2R,3aS,3bS,10aS,10bR,11S,12aS)-10b-Fluoro-1-{[(cyanomethyl)sulfanyl]carbonyl}-7-(4-fluorophenyl)-11-hydroxy-2,10a,12a-trimethyl-1,2,3,3a,3b,4,5,7,10,10a,10b,11,12,12a-tetradecahydrocyclopenta[5,6]naphtho[1,2-f]indazol-1-yl propanoate], the 50% inhibitory concentration (IC50) stood at 17 nM. On to `COCC(=O)O[C@]1(C(=O)SCC#N)[C@H](C)C[C@H]2[C@@H]3CCC4=Cc5c(cnn5-c5ccc(F)cc5)C[C@]4(C)[C@@]3(F)[C@@H](O)C[C@@]21C` [Example 27, (1R,2R,3aS,3bS,10aS,10bR,11S,12aS)-10b-Fluoro-1-{[(cyanomethyl)sulfanyl]carbonyl}-7-(4-fluorophenyl)-11-hydroxy-2,10a,12a-trimethyl-1,2,3,3a,3b,4,5,7,10,10a,10b,11,12,12a-tetradecahydrocyclopenta[5,6]naphtho[1,2-f]indazol-1-yl methoxyacetate], for which the IC50 is 6 nM.

`C[C@@H]1C[C@H]2[C@@H]3CCC4=Cc5c(cnn5-c5ccc(F)cc5)C[C@]4(C)[C@@]3(F)[C@@H](O)C[C@]2(C)[C@@]1(OC(=O)c1cocn1)C(=O)SCF` [Example 28, (1R,2R,3aS,3bS,10aS,10bR,11S,12aS)-10b-Fluoro-1-{[(fluoromethyl)sulfanyl]carbonyl}-7-(4-fluorophenyl)-11-hydroxy-2,10a,12a-trimethyl-1,2,3,3a,3b,4,5,7,10,10a,10b,11,12,12a-tetradecahydrocyclopenta[5,6]naphtho[1,2-f]indazol-1-yl 1,3-oxazole-4-carboxylate]: the IC50 was 15 nM.

As for `C[C@@H]1C[C@H]2[C@@H]3CCC4=Cc5c(cnn5-c5ccc(F)cc5)C[C@]4(C)[C@@]3(F)[C@@H](O)C[C@]2(C)[C@@]1(OC(=O)c1cocn1)C(=O)SCC#N` [Example 29, (1R,2R,3aS,3bS,10aS,10bR,11S,12aS)-10b-Fluoro-1-{[(cyanomethyl)sulfanyl]carbonyl}-7-(4-fluorophenyl)-11-hydroxy-2,10a,12a-trimethyl-1,2,3,3a,3b,4,5,7,10,10a,10b,11,12,12a-tetradecahydrocyclopenta[5,6]naphtho[1,2-f]indazol-1-yl 1,3-oxazole-4-carboxylate], the IC50 was 5.5 nM. Next, `COCC(=O)O[C@]1(C(=O)SCC#N)[C@H](C)C[C@H]2[C@@H]3CCC4=Cc5c(cnn5-c5ccc(F)nc5)C[C@]4(C)[C@@]3(F)[C@@H](O)C[C@@]21C` [Example 30, (1R,2R,3aS,3bS,10aS,10bR,11S,12aS)-10b-Fluoro-1-{[(cyanomethyl)sulfanyl]carbonyl}-7-(6-fluoropyridin-3-yl)-11-hydroxy-2,10a,12a-trimethyl-1,2,3,3a,3b,4,5,7,10,10a,10b,11,12,12a-tetradecahydrocyclopenta[5,6]naphtho[1,2-f]indazol-1-yl methoxyacetate]: 1.6 nM.

The values are drawn from US8338587B2, “Compounds” (AstraZeneca AB, priority 2009, dated 2012).
